According to US9655982B2, “Formation and uses of europium complexes” (Wayne State University, priority 2010, dated 2017):
Values joined by “and” are separate entries in the source; they are usually repeats but may differ in a detail not shown here. Equal entries are not always repeated. “Also recorded” adds a separate entry of the source. One block for each molecule: values may come before it.

Test: Cyclic voltammetry: anodic peak potentials of aqueous Eu(II) cryptates vs ferrocene/ferrocenium (oxidative stability)
Format: physicochemical
Details: for Increase in oxidative stability of Eu(II) compared to cryptand 3: difference in anodic peak potential, Eu(II) complex of the cryptand; for Anodic peak potentials (Epa) with respect to ferrocene/ferrocenium (Fc/Fc+): aqueous MOPS 0.01 M pH 7.5, Et4NClO4 0.05 M, Ar, ambient temperature, scan rate 150 mV/s, mean ± standard error
Source text: To synthesize the diverse set of cryptands 2 and 4-6, a three-step procedure was devised that involved common intermediates 7, 9, and 11 (Scheme 1). Briefly, the synthesis involved the conversion of the appropriate ethylenediols or catechols to the corresponding ditosylates (7, 9, and 11) followed by ring closure with 1,4,10,13-tetraoxa-7,16-diazacyclooctadecane, 2,2′-(ethylenedioxy)bis(ethylamine) or 1,4,10,13-tetrathia-7,16-diazacyclooctadecane.
To synthesize the diverse set of cryptands 1-6, a three-step procedure was devised that involved common intermediates 7, 9, and 11 (Scheme 1). Briefly, the synthesis involved the conversion of the appropriate ethylenediols or catechols to the corresponding ditosylates (7, 9, and 11) followed by ring closure with 1,4,10,13-tetraoxa-7,16-diazacyclooctadecane, 2,2′-(ethylenedioxy)bis(ethylamine), or 1,4,10,13-tetrathia-7,16-diazacyclooctadecane. […] The resulting solution was placed in a standard three-electrode cell (glassy-carbon working electrode, Pt-wire auxiliary electrode, and Ag/AgCl (1.0 M KCl) reference electrode). The potential at the carbon electrode was held at −0.8 V (vs Ag/AgCl) while stirring to produce Eu^II in situ for metalation.
^1H NMR spectra were obtained using a Varian Unity 300 (300 MHz) spectrometer and a Mercury 400 (400 MHz) spectrometer, ^13C NMR spectra were obtained using a Varian Unity 300 (75 MHz) spectrometer and a Mercury 400 (101 MHz) spectrometer. ^19F NMR spectra were obtained using Varian Unity 300 (282 MHz) spectrometer. […] NMR data are assumed to be first order, and the apparent multiplicity is reported as “s”=singlet, “d”=doublet, “dd”=doublet of doublets, “t”=triplet, “td”=triplet of doublets, “q”=quartet, “m”=multiplet, or “brs”=broad singlet. Italicized elements are those that are responsible for the shifts. High-resolution electrospray ionization mass spectra (HRESIMS) were obtained on an electrospray time-of-flight high-resolution Waters Micromass LCT Premier XE mass spectrometer. Cyclic voltammetric analyses were performed using a WaveNow USB potentiostat (Pine Research Instrumentation). A standard three-electrode cell was used with a glassy-carbon working electrode, a Pt-wire auxiliary electrode, and a Ag/AgCl reference electrode (1.0 M KCl). All electrochemical experiments were performed under an Ar atmosphere at ambient temperature with Et4NClO4 (0.05 M) as the supporting electrolyte, an aqueous solution of 3-(N-morpholino)propanesulfonic acid (MOPS, 0.01 M, pH 7.5) as the solvent, and the ferrocene/ferrocinium (Fc/Fc+) redox couple as an internal standard. From the initial potential of the analysis (−1.5 V), the voltage was ramped to 0.75 V and back to −1.5 V at a scan rate of 150 mV/s. […] After each measurement, ferrocene (6.7 mM in acetonitrile) was added to the sample (0.13 mM ferrocene after addition) and the measurement was repeated to enable referencing to Fc/Fc+.
To an aqueous solution of 3-(N-morpholino)propanesulfonic acid (MOPS) (0.01 M, pH 7.5), Et4NClO4 (0.05 M), and Eu(NO3)3.5H2O (1.1 mM, 1 equiv) was added a solution of the desired cryptand (12 mM, 1.2 equiv) in acetonitrile, and the resulting mixture was sparged with Ar for 5 minutes. The potential of the resulting solution was held at −0.8 V (30 minutes per 0.01 mmol of Eu(NO3)3.5H2O) while stirring under constant sparging with Ar. Immediately after holding the potential at −0.8 V, cyclic voltammograms were obtained in the potential range of −1.5 to 0.75 V at a scan rate of 150 mV/s. After acquiring the voltammogram, ferrocene (6.7 mM in acetonitrile, 0.1 equiv) was added, and another cyclic voltammogram was obtained. These cyclic voltammetric experiments were repeated 3-6 times for each ligand.

Molecule: c1ccc2c(c1)OCCN1CCSCCSCCN(CCO2)CCSCCSCC1 [cryptand 6, 5,6-Benzo-4,7-dioxa-13,16,21,24-tetrathia-1,10-diazabicyclo[8.8.8]hexacos-5-ene]
Oxidative potential more positive than hemoglobin (Fe^2+/3+) (cryptand with Eu(II)): 35 mV
Oxidative potential more positive than the Eu aqua ion (cryptand with Eu(II)): 666 mV
Increase in oxidative stability of Eu(II) compared to cryptand 3: 173 mV

Molecule: hemoglobin: Human hemoglobin from RayBiotech Inc.; Fe(II) oxidation used as biological comparison [reference compound]
Anodic peak potentials (Epa) with respect to ferrocene/ferrocenium (Fc/Fc+): −0.070 ± 0.003 V vs, Fc/Fc^+

Molecule: c1ccc2c(c1)OCCN1CCSCCSCCN(CCO2)CCSCCSCC1 [6-Eu]
Anodic peak potentials (Epa) with respect to ferrocene/ferrocenium (Fc/Fc+): −0.035 ± 0.010 V vs, Fc/Fc^+

Molecule: CC1(C)OCCN2CCOCCOCCN(CCOC1(C)C)CCOC(C)(C)C(C)(C)OCC2 [cryptand 2, 5,5,6,6,14,14,15,15-Octamethyl-4,7,13,16,21,24-hexaoxa-1,10-diazabicyclo[8.8.8]hexacosane]
Oxidative stability compared to unmodified cryptand 1 (in words) (cyclic voltammetric data of Eu-containing solutions): increased oxidative stability

Molecule: O=[N+]([O-])[O-].O=[N+]([O-])[O-].O=[N+]([O-])[O-].[Eu+3] [Eu(NO3)3, reference compound]
Anodic peak potentials (Epa) with respect to ferrocene/ferrocenium (Fc/Fc+): −0.701 ± 0.030 V vs, Fc/Fc^+

The next lines start with results.

Increase in oxidative stability of Eu(II) compared to cryptand 3: 133 mV and 129 mV
Molecule: Fc1ccc2c(c1)OCCN1CCOCCOCCN(CCOCCOCC1)CCO2 [cryptand 4, 5,6-(4-Fluorobenzo)-4,7,13,16,21,24-hexaoxa-1,10-diazabicyclo[8.8.8]hexacos-5-ene]

Anodic peak potential compared to mono-phenyl substituted cryptand 3 (in words) (p=0.76): no significant difference
Molecule: c1ccc2c(c1)OCCN1CCOCCOCCN(CCO2)CCOc2ccccc2OCC1 [cryptand 5, 5,6,14,15-Dibenzo-4,7,13,16,21,24-hexaoxa-1,10-diazabicyclo[8.8.8]hexacosane]

Anodic peak potentials (Epa) with respect to ferrocene/ferrocenium (Fc/Fc+): −0.079 ± 0.007 V vs, Fc/Fc^+
Molecule: Fc1ccc2c(c1)OCCN1CCOCCOCCN(CCOCCOCC1)CCO2 [4-Eu]
Oxidative stability compared to hemoglobin (in words) (Fe(II) in hemoglobin, p=0.64, p=0.45): statistically identical; also recorded: not different
